Earlier results, collected in paper PMC3048208 (British Journal of Cancer, 2011).

Parameters: method as in Kelly et al, 2005; Steele et al, 2008
Details: ref Kelly et al, 2005; Steele et al, 2008; cited from earlier work

O=C(/C=C/c1cccc(S(=O)(=O)Nc2ccccc2)c1)NO [belinostat]
half-life: 1 to 2 h

O=C(CCCCCCC(=O)Nc1ccccc1)NO [vorinostat, suberoylanilide hydroxamic acid]
half-life: 1 to 2 h
